Source: patent US10842783B2, “Avibactam and carbapenems antibacterial agents” (THE JOHNS HOPKINS UNIVERSITY, priority 2017, dated 2020)
Entries after “also recorded” stand apart in the source; their conditions may differ. Read-outs that look alike come from different tables or passages of the source.

Assays:
[1] = test system: M. abscessus clinical strains; assay: Broth microdilution MIC of carbapenems with and without avibactam, twenty eight clinical isolates; type: cell-based, Mycobacterium abscessus; conditions: for Effect of avibactam on the MIC of the carbapenem, in words: clinical strains; for Effect of avibactam on the MIC of the carbapenem, in words / Average reduction in MICs of the carbapenems in combination with avibactam: avibactam 4 μg/mL; for Average reduction in MICs of the carbapenems in combination with avibactam: twenty eight clinical strains
Text: Twenty eight unique clinical isolates of M. abscessus were used in this study. These strains were obtained de-identified from the archive of the clinical microbiology laboratory of the Johns Hopkins University Hospital per institutional ethical guidelines. They were isolated over a 10 year period, from 2005-2015, from patients that were temporally and geographically unrelated. No two isolates are from the same patient. Those displaying a high level of resistance to antibacterials used for M. abscessus infection were selected for this study. All strains obtained prior to 2014 were identified to the M. abscessus complex level using a variety of methods including 16S rDNA sequencing in conjunction with selected biochemical testing such as sodium citrate. More recent isolates (those isolated after 2014) were identified using MALDI ToF mass spectrometry in which a Bruker MicroFlex LT (MicroFlex LT) mass spectrometer and Bruker Biotyper software and existing database (version 2.0, Bruker) were employed. Sub-speciation within the M. abscessus complex, which helps to distinguish between M. abscessus sensu stricto, M. massiliense, and M. bolletii, was not done as this is not per the current standard of care at the Johns Hopkins Clinical Mycobacteriology Laboratory. Distinguishing between M. abscessus sensu stricto and M. massiliense is most often performed to guide therapy since M. massiliense is known to have a non-funtional erm gene and is therefore susceptible to macrolides. However, due to the high number of macrolide resistant M. abscessus complex isolates recovered at Johns Hopkins, most patient isolates are subjected to drug susceptibility testing, making speciation within the complex of lesser importance. Thus, the proportion of each subspecies within the M. abscessus complex for the Johns Hopkins strain collection is not known. M. abscessus ATCC 19977 was included as a reference drug-sensitive strain.
(§1) All strains were initially grown in 7H9 complete medium composed of Middlebrook 7H9 broth (Difco) supplemented with 0.5% glycerol, 10% oleic acid-albumin-dextrose-catalase and 0.05% Tween-80 at 37° C. with constant shaking. A standard broth microdilution method was used to determine MIC. Briefly, M. abscessus strains were grown as described above and these cultures, at exponential phase (A600 nm˜0.6-0.8), were used to inoculate 10^5 colony forming units (CFU) into each well of microtiter culture plates containing a carbapenem at two fold serial dilutions ranging from 256 to 0.25 μg/mL. An identical setup but with wells containing 4 μg/mL of avibactam was used to assess the effect of this agent on each carbapenem. Carbapenems studied were procured commercially from Sigma-Aldrich and include ertapenem, meropenem, imipenem, doripenem, biapenem, faropenem, tebipenem and panipenem. β-lactamase inhibitors sulbactam, tazobactam and avibactam were also procured from Sigma-Aldrich. In addition, to establish baseline antibacterial susceptibility for each strain we also determined MICs for drugs currently used to treat M. abscessus infections. They are linezolid, cefoxitin, kanamycin, ciprofloxacin, moxifloxacin, amikacin, tigecycline, imipenem, tobramycin, trimethoprim/sulfamethoxazole, and clarithromycin. M. abscessus growth was evaluated by visual inspection of pellets after 3 days of incubation (the exception being clarithromycin for which incubation was extended to 14 days) at 30° C. without shaking per CLSI guidelines. In addition to assessment in 7H9 complete medium, we also used cation adjusted Mueller-Hinton broth for MIC studies for the reference strain M. abscessus ATCC 19977. All experiments were repeated and the final data represent the average of two biological replicates.

[2] = in vivo; cited from earlier work
M. abscessus ATCC 19977 = assay: Broth microdilution MIC of carbapenems with and without β-lactamase inhibitors, reference strain; type: cell-based, Mycobacterium abscessus; conditions: for Minimum inhibitory concentration, 7H9 + avibactam / Minimum inhibitory concentration, CAMHB + avibactam: avibactam at fixed 4 μg/mL; for Minimum inhibitory concentration, 7H9 + sulbactam: sulbactam at fixed 4 μg/mL; for Minimum inhibitory concentration, 7H9 + tazobactam: tazobactam at fixed 4 μg/mL; for MIC: Mycobacteroides abscessus; for Ability of the β-lactamase inhibitor to reduce MICs of carbapenems, in words: inhibitor at 4 μg/mL
Procedure: as §1
We studied the utility of β-lactamase inhibitors sulbactam, tazobactam, and avibactam in restoring in vitro potencies of carbapenems against M. abscessus using the reference drug-susceptible strain ATCC 19977. We determined MICs of ertapenem, meropenem, imipenem, doripenem, biapenem, faropenem, tebipenem and panipenem alone or in the presence of the aforementioned […] β-lactamase inhibitors.

[3] = ATCC19977, 7H9 broth, drug alone, read-out: Minimum inhibitory concentration, 7H9 broth
[4] = ATCC19977, carbapenem alone, single values given, read-out: MIC of carbapenems against the drug sensitive control strain
[5] = ATCC19977, cation-adjusted Mueller-Hinton broth, drug alone, read-out: Minimum inhibitory concentration, CAMHB only
[6] = cation-adjusted Mueller-Hinton broth
[7] = with avibactam, against M. abscessus

| SMILES | Effect of avibactam on the MIC of the carbapenem, in words [1] | Average reduction in MICs of the carbapenems in combination with avibactam [1] | Average peak plasma concentration [2] | Minimum inhibitory concentration, 7H9 + avibactam (M. abscessus ATCC 19977; 7H9 broth) | Minimum inhibitory concentration, 7H9 + sulbactam (M. abscessus ATCC 19977; 7H9 broth) | Minimum inhibitory concentration, 7H9 + tazobactam (M. abscessus ATCC 19977; 7H9 broth) | MIC (M. abscessus ATCC 19977; [3]) | MIC (M. abscessus ATCC 19977; [4]) | MIC (M. abscessus ATCC 19977; [5]) | Minimum inhibitory concentration, CAMHB + avibactam (M. abscessus ATCC 19977; [6]) | Ability of the β-lactamase inhibitor to reduce MICs of carbapenems, in words (M. abscessus ATCC 19977) | MIC (M. abscessus ATCC 19977; ATCC19977, read-out: Minimum inhibitory concentration, 7H9 broth) | Fold decrease of MIC by avibactam [1, 7] | MIC of carbapenem as reduced by avibactam [1, 7] | Half-life [2] |
| --- | --- | --- | --- | --- | --- | --- | --- | --- | --- | --- | --- | --- | --- | --- | --- |
| CC(=N)N1CC[C@H](SC2=C(C(=O)O)N3C(=O)[C@H]([C@@H](C)O)[C@H]3C2)C1 [Panipenem, panipenem] | levels that are therapeutically relevant; also recorded: levels achievable in the blood | 8 fold | ~22 µg/mL | 8 to 16 mg/L | 16 to 32 mg/L | 32 to 64 mg/L | 64 to 128 mg/L | 128 mg/L | 64 to 128 mg/L | 8 to 16 mg/L | – | – | – | – | – |
| C[C@@H](O)[C@H]1C(=O)N2C(C(=O)[O-])=C(SC3Cn4cnc[n+]4C3)[C@H](C)[C@H]12 (some centres unmarked) [Biapenem, biapenem] | – | 5 fold | – | 2 to 4 mg/L | 4 to 8 mg/L | 8 to 16 mg/L | 8 to 16 mg/L | 16 mg/L | 16 to 32 mg/L | 8 to 16 mg/L | – | – | – | – | – |
| NC(=O)[C@@H]1CC[C@@H]2CN1C(=O)N2OS(=O)(=O)O [Avibactam, avibactam] | – | – | – | – | – | – | > 256 mg/L | – | > 256 mg/L | – | most active | – | – | – | – |
| CC1(C)[C@H](C(=O)O)N2C(=O)C[C@H]2S1(=O)=O [Sulbactam, sulbactam] | – | – | – | – | – | – | – | – | – | – | failed to reduce the MICs; also recorded: failed to observe significant reduction in MIC | > 64 mg/L | – | – | – |
| C[C@@H](O)[C@H]1C(=O)N2C(C(=O)O)=C(S[C@@H]3CN[C@H](CNS(N)(=O)=O)C3)[C@H](C)[C@H]12 [Doripenem, doripenem] | – | 6 fold | – | 2 to 4 mg/L | 8 to 16 mg/L | 8 to 16 mg/L | 8 to 16 mg/L | 16 mg/L | 16 to 32 mg/L | 4 to 8 mg/L | – | – | – | – | – |
| C[C@@H](O)[C@H]1C(=O)N2C(C(=O)O)=C(SC3CN(C4=NCCS4)C3)[C@H](C)[C@H]12 [Tebipenem, tebipenem] | levels that are therapeutically relevant; also recorded: largest reduction in MIC | > 38 fold | ~8 µg/mL | 4 to 8 mg/L | >64 mg/L | >64 mg/L | 128 to 256 mg/L | 256 mg/L | 128 to 256 mg/L | 8 to 16 mg/L | – | – | 32-64 fold | 4 to 8 mg/L | 1 h |
| C[C@@H](O)[C@H]1C(=O)N2C(C(=O)O)=C([C@H]3CCCO3)S[C@H]12 [Faropenem, faropenem] | least effective | 3 fold | – | 8 to 16 mg/L | 16 to 32 mg/L | 32 to 64 mg/L | 32 to 64 mg/L | 64 mg/L | 64 to 128 mg/L | 16 to 32 mg/L | – | – | – | – | – |
| O=C(O)[C@H]1/C(=C/CO)O[C@@H]2CC(=O)N21 [clavulanate] | – | – | – | – | – | – | – | – | – | – | failed to observe significant reduction in MIC | – | – | – | – |
| C[C@@H](O)[C@H]1C(=O)N2C(C(=O)O)=C(SCCN=CN)C[C@H]12 [Imipenem, imipenem] | – | 2 fold | – | 2 to 4 mg/L | 4 to 8 mg/L | 2 to 4 mg/L | 4 to 8 mg/L | 8 mg/L | 8 to 16 mg/L | 4 to 8 mg/L | – | – | – | – | – |
| C[C@]1(Cn2ccnn2)[C@H](C(=O)O)N2C(=O)C[C@H]2S1(=O)=O [Tazobactam, tazobactam] | – | – | – | – | – | – | > 64 mg/L | – | – | – | failed to reduce the MICs; also recorded: failed to observe significant reduction in MIC | – | – | – | – |
| C[C@@H](O)[C@H]1C(=O)N2C(C(=O)O)=C(S[C@@H]3CN[C@H](C(=O)Nc4cccc(C(=O)O)c4)C3)[C@H](C)[C@H]12 [Ertapenem, ertapenem] | levels that are therapeutically relevant; also recorded: levels achievable in the blood | > 13 fold | ~150 µg/mL | 4 to 8 mg/L | >64 mg/L | 32 to 64 mg/L | 64 to 128 mg/L | 128 mg/L | 128 to 256 mg/L | 8 to 16 mg/L | – | – | – | – | ~4 h |
| C[C@@H](O)[C@H]1C(=O)N2C(C(=O)O)=C(S[C@@H]3CN[C@H](C(=O)N(C)C)C3)[C@H](C)[C@H]12 [Meropenem, meropenem] | – | 6 fold | – | 2 to 4 mg/L | 8 to 16 mg/L | 8 to 16 mg/L | 8 to 16 mg/L | 16 mg/L | 32 to 64 mg/L | 4 to 8 mg/L | – | – | – | – | – |
